In PubChem BioAssay (NCI):
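Assay format: 96-well plates, 48-hour exposure. At the GI50, growth is halved. TGI is the concentration that stops growth completely.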

Columns and labels:
Experiment in all cases: inhibition of tumour cell growth, NCI panel, 48 h
SNB-19 CNS = system: SNB-19 CNS
OVCAR-4 ovarian = system: OVCAR-4 ovarian
RXF 393 renal = system: RXF 393 renal
HL-60(TB) leukemia = system: HL-60(TB) leukemia
K-562 leukemia = system: K-562 leukemia
OVCAR-3 ovarian = system: OVCAR-3 ovarian
HCT-15 colon = system: HCT-15 colon
TK-10 renal = system: TK-10 renal
DU-145 prostate = system: DU-145 prostate
HCT-116 colon = system: HCT-116 colon
CAKI-1 renal = system: CAKI-1 renal
LOX IMVI melanoma = system: LOX IMVI melanoma
SR leukemia = system: SR leukemia
NCI-H460 lung = system: NCI-H460 lung
MOLT-4 leukemia = system: MOLT-4 leukemia
OVCAR-5 ovarian = system: OVCAR-5 ovarian
EKVX NSCLC = system: EKVX NSCLC
MCF7 breast = system: MCF7 breast
HOP-92 NSCLC = system: HOP-92 NSCLC
SK-MEL-5 melanoma = system: SK-MEL-5 melanoma
NCI-H226 lung = system: NCI-H226 lung
SF-539 CNS = system: SF-539 CNS
ACHN renal = system: ACHN renal
OVCAR-8 ovarian = system: OVCAR-8 ovarian
HOP-62 NSCLC = system: HOP-62 NSCLC
786-0 renal = system: 786-0 renal
MDA-MB-435 = system: MDA-MB-435
A549 NSCLC = system: A549 NSCLC
MALME-3M melanoma = system: MALME-3M melanoma
RPMI-8226 leukemia = system: RPMI-8226 leukemia
SW-620 colon = system: SW-620 colon
NCI-H23 lung = system: NCI-H23 lung
UACC-257 melanoma = system: UACC-257 melanoma
IGROV1 ovarian = system: IGROV1 ovarian
SF-268 CNS = system: SF-268 CNS
NCI-H522 lung = system: NCI-H522 lung
M14 melanoma = system: M14 melanoma
SK-MEL-28 melanoma = system: SK-MEL-28 melanoma
PC-3 prostate = system: PC-3 prostate
A498 renal = system: A498 renal
KM12 colon = system: KM12 colon
HCC-2998 colon = system: HCC-2998 colon
SK-OV-3 ovarian = system: SK-OV-3 ovarian
NCI/ADR-RES ovarian = system: NCI/ADR-RES ovarian
HS 578T breast = system: HS 578T breast
MDA-MB-231 breast = system: MDA-MB-231 breast
UO-31 renal = system: UO-31 renal
HT29 colon = system: HT29 colon
SNB-75 CNS = system: SNB-75 CNS
SK-MEL-2 melanoma = system: SK-MEL-2 melanoma
CCRF-CEM leukemia = system: CCRF-CEM leukemia
SF-295 CNS = system: SF-295 CNS
U251 CNS = system: U251 CNS
SN12C renal = system: SN12C renal
COLO 205 colon = system: COLO 205 colon

Compound: O=C(O)c1ccc(CSc2nc3ccccc3[nH]2)cc1
- GI50 (SNB-19 CNS): > 100 µM
- TGI (SNB-19 CNS): > 100 µM
- GI50 (OVCAR-4 ovarian): > 100 µM
- TGI (OVCAR-4 ovarian): > 100 µM
- GI50 (RXF 393 renal): > 100 µM
- TGI (RXF 393 renal): > 100 µM
- GI50 (HL-60(TB) leukemia): > 100 µM
- TGI (HL-60(TB) leukemia): > 100 µM
- GI50 (K-562 leukemia): > 100 µM
- TGI (K-562 leukemia): > 100 µM
- GI50 (OVCAR-3 ovarian): > 100 µM
- TGI (OVCAR-3 ovarian): > 100 µM
- GI50 (HCT-15 colon): > 100 µM
- TGI (HCT-15 colon): > 100 µM
- GI50 (TK-10 renal): > 100 µM
- TGI (TK-10 renal): > 100 µM
- GI50 (DU-145 prostate): > 100 µM
- TGI (DU-145 prostate): > 100 µM
- GI50 (HCT-116 colon): > 100 µM
- TGI (HCT-116 colon): > 100 µM
- GI50 (CAKI-1 renal): > 100 µM
- TGI (CAKI-1 renal): > 100 µM
- GI50 (LOX IMVI melanoma): > 100 µM
- TGI (LOX IMVI melanoma): > 100 µM
- GI50 (SR leukemia): > 100 µM
- TGI (SR leukemia): > 100 µM
- GI50 (NCI-H460 lung): > 100 µM
- TGI (NCI-H460 lung): > 100 µM
- GI50 (MOLT-4 leukemia): > 100 µM
- TGI (MOLT-4 leukemia): > 100 µM
- GI50 (OVCAR-5 ovarian): > 100 µM
- TGI (OVCAR-5 ovarian): > 100 µM
- GI50 (EKVX NSCLC): > 100 µM
- TGI (EKVX NSCLC): > 100 µM
- GI50 (MCF7 breast): > 100 µM
- TGI (MCF7 breast): > 100 µM
- GI50 (HOP-92 NSCLC): > 100 µM
- TGI (HOP-92 NSCLC): > 100 µM
- GI50 (SK-MEL-5 melanoma): > 100 µM
- TGI (SK-MEL-5 melanoma): > 100 µM
- GI50 (NCI-H226 lung): > 100 µM
- TGI (NCI-H226 lung): > 100 µM
- GI50 (SF-539 CNS): > 100 µM
- TGI (SF-539 CNS): > 100 µM
- GI50 (ACHN renal): > 100 µM
- TGI (ACHN renal): > 100 µM
- GI50 (OVCAR-8 ovarian): > 100 µM
- TGI (OVCAR-8 ovarian): > 100 µM
- GI50 (HOP-62 NSCLC): > 100 µM
- TGI (HOP-62 NSCLC): > 100 µM
- GI50 (786-0 renal): > 100 µM
- TGI (786-0 renal): > 100 µM
- GI50 (MDA-MB-435): > 100 µM
- TGI (MDA-MB-435): > 100 µM
- GI50 (A549 NSCLC): > 100 µM
- TGI (A549 NSCLC): > 100 µM
- GI50 (MALME-3M melanoma): > 100 µM
- TGI (MALME-3M melanoma): > 100 µM
- GI50 (RPMI-8226 leukemia): > 100 µM
- TGI (RPMI-8226 leukemia): > 100 µM
- GI50 (SW-620 colon): > 100 µM
- TGI (SW-620 colon): > 100 µM
- GI50 (NCI-H23 lung): > 100 µM
- TGI (NCI-H23 lung): > 100 µM
- GI50 (UACC-257 melanoma): > 100 µM
- TGI (UACC-257 melanoma): > 100 µM
- GI50 (IGROV1 ovarian): > 100 µM
- TGI (IGROV1 ovarian): > 100 µM
- GI50 (SF-268 CNS): > 100 µM
- TGI (SF-268 CNS): > 100 µM
- GI50 (NCI-H522 lung): > 100 µM
- TGI (NCI-H522 lung): > 100 µM
- GI50 (M14 melanoma): > 100 µM
- TGI (M14 melanoma): > 100 µM
- GI50 (SK-MEL-28 melanoma): > 100 µM
- TGI (SK-MEL-28 melanoma): > 100 µM
- GI50 (PC-3 prostate): > 100 µM
- TGI (PC-3 prostate): > 100 µM
- GI50 (A498 renal): > 100 µM
- TGI (A498 renal): > 100 µM
- GI50 (KM12 colon): > 100 µM
- TGI (KM12 colon): > 100 µM
- GI50 (HCC-2998 colon): > 100 µM
- TGI (HCC-2998 colon): > 100 µM
- GI50 (SK-OV-3 ovarian): > 100 µM
- TGI (SK-OV-3 ovarian): > 100 µM
- GI50 (NCI/ADR-RES ovarian): > 100 µM
- TGI (NCI/ADR-RES ovarian): > 100 µM
- GI50 (HS 578T breast): > 100 µM
- TGI (HS 578T breast): > 100 µM
- GI50 (MDA-MB-231 breast): > 100 µM
- TGI (MDA-MB-231 breast): > 100 µM
- GI50 (UO-31 renal): > 100 µM
- TGI (UO-31 renal): > 100 µM
- GI50 (HT29 colon): > 100 µM
- TGI (HT29 colon): > 100 µM
- GI50 (SNB-75 CNS): > 100 µM
- TGI (SNB-75 CNS): > 100 µM
- GI50 (SK-MEL-2 melanoma): > 100 µM
- TGI (SK-MEL-2 melanoma): > 100 µM
- GI50 (CCRF-CEM leukemia): > 100 µM
- TGI (CCRF-CEM leukemia): > 100 µM
- GI50 (SF-295 CNS): > 100 µM
- TGI (SF-295 CNS): > 100 µM
- GI50 (U251 CNS): > 100 µM
- TGI (U251 CNS): > 100 µM
- GI50 (SN12C renal): > 100 µM
- TGI (SN12C renal): > 100 µM
- GI50 (COLO 205 colon): > 100 µM
- TGI (COLO 205 colon): > 100 µM
